PubChem BioAssay (NCI)
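How tested: cells in 96-well plates exposed to compound for 48 hours at five concentrations. TGI: concentration producing complete growth inhibition.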

Experiments:
Assay in all cases: NCI tumour cell line growth inhibition, 48 h
[1] = tested on: A498 renal
[2] = tested on: U251 CNS
[3] = tested on: HOP-92 NSCLC
[4] = tested on: OVCAR-3 ovarian
[5] = tested on: A549 NSCLC
[6] = tested on: HCT-15 colon
[7] = tested on: OVCAR-5 ovarian
[8] = tested on: RXF 393 renal
[9] = tested on: SNB-75 CNS
[10] = tested on: IGROV1 ovarian
[11] = tested on: OVCAR-4 ovarian
[12] = tested on: SN12C renal
[13] = tested on: SK-MEL-2 melanoma
[14] = tested on: CAKI-1 renal
[15] = tested on: EKVX NSCLC
[16] = tested on: MCF7 breast
[17] = tested on: HT29 colon
[18] = tested on: UO-31 renal
[19] = tested on: HOP-62 NSCLC
[20] = tested on: 786-0 renal
[21] = tested on: NCI/ADR-RES ovarian
[22] = tested on: K-562 leukemia
[23] = tested on: NCI-H23 lung
[24] = tested on: HS 578T breast
[25] = tested on: MDA-N
[26] = tested on: ACHN renal
[27] = tested on: UACC-62 melanoma
[28] = tested on: SF-539 CNS
[29] = tested on: SNB-19 CNS
[30] = tested on: TK-10 renal
[31] = tested on: HCT-116 colon
[32] = tested on: RPMI-8226 leukemia
[33] = tested on: SW-620 colon
[34] = tested on: NCI-H522 lung
[35] = tested on: BT-549 breast
[36] = tested on: MDA-MB-435
[37] = tested on: DU-145 prostate
[38] = tested on: SF-268 CNS
[39] = tested on: MDA-MB-231 breast
[40] = tested on: HCC-2998 colon
[41] = tested on: SF-295 CNS
[42] = tested on: T-47D breast
[43] = tested on: SK-OV-3 ovarian
[44] = tested on: NCI-H460 lung
[45] = tested on: UACC-257 melanoma
[46] = tested on: SK-MEL-28 melanoma
[47] = tested on: PC-3 prostate
[48] = tested on: KM12 colon
[49] = tested on: SK-MEL-5 melanoma
[50] = tested on: NCI-H226 lung
[51] = tested on: MALME-3M melanoma
[52] = tested on: COLO 205 colon
[53] = tested on: M14 melanoma
[54] = tested on: OVCAR-8 ovarian
[55] = tested on: LOX IMVI melanoma

Molecule `C/C(=N\NC1=NCCN1)c1cn(C2=NCCN2)nc1C` has a TGI [1] of over 100 µM, a TGI [2] of over 100 µM and a TGI [3] of over 100 µM. The TGI [4] was over 100 µM, the TGI [5] was over 100 µM and the TGI [6] was over 100 µM. The TGI [7] was over 100 µM, the TGI [8] was over 100 µM and the TGI [9] was over 100 µM. The TGI [10] was over 100 µM, the TGI [11] was over 100 µM and the TGI [12] was over 100 µM. The TGI [13] was over 100 µM, the TGI [14] was over 100 µM and the TGI [15] was over 100 µM. For the same molecule, the TGI [16] was over 100 µM, the TGI [17] was over 100 µM and the TGI [18] was over 100 µM. The TGI [19] was over 100 µM, the TGI [20] was over 100 µM and the TGI [21] was over 100 µM. It also gave a TGI [22] of over 100 µM, a TGI [23] of over 100 µM and a TGI [24] of over 100 µM. For the same molecule, the TGI [25] was over 100 µM, the TGI [26] was over 100 µM and the TGI [27] was over 100 µM. The TGI [28] was over 100 µM, the TGI [29] was over 100 µM and the TGI [30] was over 100 µM. For the same molecule, the TGI [31] was over 100 µM, the TGI [32] was over 100 µM and the TGI [33] was over 100 µM. The TGI [34] was over 100 µM, the TGI [35] was over 100 µM and the TGI [36] was over 100 µM. It also gave a TGI [37] of over 100 µM, a TGI [38] of over 100 µM and a TGI [39] of over 100 µM. For the same molecule, the TGI [40] was over 100 µM, the TGI [41] was over 100 µM and the TGI [42] was over 100 µM. For the same molecule, the TGI [43] was over 100 µM, the TGI [44] was over 100 µM and the TGI [45] was over 100 µM. The TGI [46] was over 100 µM, the TGI [47] was over 100 µM and the TGI [48] was over 100 µM. The TGI [49] was over 100 µM, the TGI [50] was over 100 µM and the TGI [51] was over 100 µM. The TGI [52] was over 100 µM, the TGI [53] was over 100 µM and the TGI [54] was over 100 µM.
With `Clc1ccc(CSc2ncnc3c2ncn3C2CCCCO2)cc1` (stereo not drawn) the TGI [1] was 31.9 µM, the TGI [2] was 44.9 µM and the TGI [3] was 89.2 µM. The TGI [4] was 32.5 µM, the TGI [5] was over 100 µM and the TGI [6] was over 100 µM. The TGI [7] was over 100 µM, the TGI [8] was 80.2 µM and the TGI [9] was 58.1 µM. For the same molecule, the TGI [10] was over 100 µM, the TGI [11] was over 100 µM and the TGI [12] was 38.7 µM. For the same molecule, the TGI [13] was 32 µM, the TGI [14] was over 100 µM and the TGI [15] was 50.1 µM. It also gave a TGI [16] of 83.7 µM, a TGI [17] of 35.5 µM and a TGI [18] of 4.36 µM. The TGI [19] was 45.7 µM, the TGI [20] was 56.2 µM and the TGI [21] was 63.2 µM. The TGI [22] was 66.1 µM, the TGI [23] was 64.8 µM and the TGI [24] was 76.4 µM. The TGI [25] was 43.8 µM, the TGI [26] was 29.8 µM and the TGI [27] was 30 µM. The TGI [29] was over 100 µM, the TGI [30] was 60.4 µM and the TGI [31] was 53.9 µM. The TGI [32] was 39.4 µM, the TGI [33] was over 100 µM and the TGI [34] was 33.7 µM. For the same molecule, the TGI [35] was 68.2 µM, the TGI [36] was 38.1 µM and the TGI [37] was over 100 µM. The TGI [38] was 77.4 µM, the TGI [39] was 86.3 µM and the TGI [40] was 38.1 µM. It also gave a TGI [41] of 36.7 µM, a TGI [42] of 57.8 µM and a TGI [43] of 55.6 µM. It also gave a TGI [44] of 36.7 µM, a TGI [45] of 24.9 µM and a TGI [46] of 48.8 µM. The TGI [47] was 74.7 µM, the TGI [55] was 36.3 µM and the TGI [48] was 46.9 µM. It also gave a TGI [49] of 22.9 µM, a TGI [50] of 76.7 µM and a TGI [51] of 38.4 µM. It also gave a TGI [52] of 56.9 µM, a TGI [53] of 31 µM and a TGI [54] of 71.5 µM.
